For twelve compounds, TGI and GI50 results are on record in PubChem BioAssay (NCI).

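Compound exposure: 48 hours, 5 concentrations, 96-well plates. Here, GI50 denotes the concentration required for 50% inhibition of growth. At the TGI there is no net growth.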

Among the test systems are HCT-15 colon; UACC-62 melanoma; SW-620 colon; ACHN renal; HL-60(TB) leukemia; A549 NSCLC; U251 CNS; IGROV1 ovarian; OVCAR-5 ovarian; MALME-3M melanoma.
Common to all, as to assay: NCI anticancer screen, dose series, 48 h

Regarding `Nc1nc(N)c2nn(-c3ccc(C(=O)O)cc3)nc2n1`, the TGI in the assay on HCT-15 colon, in the assay with UACC-62 melanoma, in the assay on SW-620 colon, with ACHN renal, in the assay on HL-60(TB) leukemia and in the assay with A549 NSCLC was over 100 µM in each case. For the same compound, the TGI in the assay with U251 CNS, in the assay with IGROV1 ovarian and in the assay on OVCAR-5 ovarian was over 100 µM in each case.

In the case of `O=C(Nc1cccc(Cl)c1)c1cc2cc(N=Nc3ccc(Br)cc3)ccc2oc1=O`, the TGI is over 100 µM in the assay on MALME-3M melanoma; over 100 µM in the assay with HCT-15 colon; 39.1 µM in the assay on UACC-62 melanoma; over 100 µM in the assay with SW-620 colon; over 100 µM in the assay with ACHN renal; over 100 µM in the assay with A549 NSCLC. Also, the results for the TGI with U251 CNS, in the assay with IGROV1 ovarian and with OVCAR-5 ovarian were over 100 µM, over 100 µM and 58 µM, respectively.

`C/C=C\C(C)=C/C(C)C(=O)CC(O)CC1CC(=O)NC(=O)C1` (stereo unspecified): the TGI in the assay on HCT-15 colon is over 100 µM; in the assay on UACC-62 melanoma it was over 64.1 µM; with SW-620 colon, over 100 µM; with ACHN renal, over 100 µM; in the assay with HL-60(TB) leukemia it was over 100 µM; in the assay on A549 NSCLC, over 100 µM. The TGI with U251 CNS, in the assay on IGROV1 ovarian and in the assay with OVCAR-5 ovarian was over 100 µM each time.

For `COCC(O)CN1C(N)=NC(O)C1O` (stereo unspecified), the TGI in the assay on MALME-3M melanoma, with SW-620 colon, in the assay on ACHN renal, with HL-60(TB) leukemia, in the assay on A549 NSCLC and with U251 CNS was over 100 µM throughout. In addition, in the assay with OVCAR-5 ovarian, the TGI is over 100 µM.

Turning to `COc1ccc2nccc(C3OC(=O)N4CCC(=O)CC34)c2c1` (stereo unspecified), the TGI in the assay on HCT-15 colon, with UACC-62 melanoma, with SW-620 colon, with ACHN renal, with HL-60(TB) leukemia and with A549 NSCLC was over 100 µM each time. For the same compound, the TGI in the assay on U251 CNS, in the assay on IGROV1 ovarian and with OVCAR-5 ovarian was over 100 µM throughout.

Regarding `CCCCCC1C2C(=O)NC(=O)C1C(=O)NC2=O` (stereo unspecified), the TGI in the assay with MALME-3M melanoma, in the assay with HCT-15 colon, in the assay with UACC-62 melanoma, in the assay on SW-620 colon, in the assay on ACHN renal and in the assay with HL-60(TB) leukemia was over 100 µM in each case. For the same compound, the TGI with A549 NSCLC, in the assay with IGROV1 ovarian and in the assay on OVCAR-5 ovarian was over 100 µM in each case.

For `Cc1cccc(NC(=O)c2sc3nc4c(cc3c2N)CCC4)c1C`, the GI50 is 0.264 µM with HCT-15 colon; 0.267 µM with UACC-62 melanoma; 0.359 µM with SW-620 colon; 0.951 µM with ACHN renal; 0.239 µM in the assay on HL-60(TB) leukemia; 0.453 µM in the assay on A549 NSCLC. The values for the GI50 in the assay on U251 CNS, with IGROV1 ovarian and in the assay on OVCAR-5 ovarian were 0.457 µM, 0.766 µM and 0.531 µM, respectively. Further, the TGI in the assay with HCT-15 colon was 21.3 µM; in the assay on UACC-62 melanoma it was 21 µM; in the assay on SW-620 colon, over 100 µM; with ACHN renal it was 36.7 µM; with HL-60(TB) leukemia, 0.864 µM; in the assay with A549 NSCLC it was 13.5 µM. Also, the TGI was determined as 15.8 µM in the assay on U251 CNS, 53 µM in the assay on IGROV1 ovarian and 62.6 µM with OVCAR-5 ovarian.

`O=C(/C=C\c1ccc(Cl)c(Cl)c1)c1ccccc1`: the GI50 in the assay on HCT-15 colon is 2.84 µM; in the assay on UACC-62 melanoma, 9.33 µM; in the assay with SW-620 colon it was 2.21 µM; with ACHN renal, 7.65 µM; in the assay on HL-60(TB) leukemia, 5.46 µM; in the assay with A549 NSCLC it was 11.5 µM. In addition, the GI50 with U251 CNS was 3.34 µM; in the assay with IGROV1 ovarian, 6.82 µM; in the assay with OVCAR-5 ovarian, 15.3 µM. The TGI in the assay with HCT-15 colon was found to be 10.3 µM; in the assay with UACC-62 melanoma, 21.6 µM; in the assay on SW-620 colon it was 5.52 µM; in the assay with ACHN renal, 20.5 µM; in the assay with HL-60(TB) leukemia, 29.1 µM; with A549 NSCLC, 26.2 µM. Further, the TGI stood at 15.6 µM in the assay on U251 CNS, 21 µM with IGROV1 ovarian and 31.3 µM in the assay on OVCAR-5 ovarian.

Consider `CCCC1C2=C(C(=O)OC2=O)C2C(CC)CC3=C(C(=O)OC3=O)C12` (stereo unspecified), for which the TGI with HCT-15 colon, in the assay on UACC-62 melanoma, in the assay on SW-620 colon, in the assay on ACHN renal, with HL-60(TB) leukemia and with A549 NSCLC was over 100 µM each time. The TGI with U251 CNS, in the assay on IGROV1 ovarian and in the assay on OVCAR-5 ovarian was over 100 µM each time.

For the compound `CC/C(=C(\c1ccccc1)c1ccc(OCC[N+](C)(C)C)cc1)c1ccccc1`, the TGI stood at 28.6 µM in the assay with MALME-3M melanoma; 34.1 µM with HCT-15 colon; 26.8 µM with UACC-62 melanoma; 30 µM in the assay on SW-620 colon; 34.6 µM with ACHN renal; 6.13 µM in the assay with HL-60(TB) leukemia. Besides, the TGI in the assay with A549 NSCLC stood at 35.3 µM; in the assay with U251 CNS, 29.2 µM; with IGROV1 ovarian, 27.8 µM.

On to `N#Cc1c(-c2ccc(Cl)cc2)n([O-])c2ccccc2[n+]1=O`, for which the GI50 in the assay on HCT-15 colon was 13.7 µM; in the assay with UACC-62 melanoma it was 17.2 µM; in the assay on SW-620 colon, 12.7 µM; in the assay on ACHN renal, 4.2 µM; with HL-60(TB) leukemia, 3.1 µM; in the assay with A549 NSCLC it was 22.2 µM. The GI50 is 4.37 µM in the assay with U251 CNS, 2.89 µM in the assay on IGROV1 ovarian and 16.7 µM with OVCAR-5 ovarian. In addition, the TGI with HCT-15 colon worked out at 37.5 µM; in the assay with UACC-62 melanoma, 33.6 µM; in the assay with SW-620 colon, 34.1 µM; in the assay with ACHN renal it was 16.8 µM; in the assay on HL-60(TB) leukemia, 11.4 µM; in the assay on A549 NSCLC, 55.4 µM. For the same compound, the TGI with U251 CNS is 17.1 µM; with IGROV1 ovarian, 15.6 µM; in the assay on OVCAR-5 ovarian, 30.6 µM.

Consider `S=C(N/N=C/c1ccccc1)NC1CC(c2ccccc2)Oc2ccccc21` (stereo unspecified), for which the TGI in the assay on MALME-3M melanoma, in the assay with UACC-62 melanoma, in the assay on SW-620 colon, with A549 NSCLC, in the assay on U251 CNS and in the assay on IGROV1 ovarian was over 100 µM in each case. In addition, in the assay with OVCAR-5 ovarian, the TGI is over 100 µM.
